The values below come from patent publication US20230302013A1, “METHOD OF TREATING VIRAL-INDUCED COGNITIVE D[…] TARGETING LEAKY RyR2 CHANNELS” (The Trustees of Columbia University in the City of New York, priority 2022, published 2023).

Entries after “also recorded” stand apart in the source; their conditions may differ.

The target of assay [1] is T1, RyR2 (Homo sapiens, UniProt Q92736).
T1 construct: RyR2 was immunoprecipitated from 1.5 mg of tissue lysate using an anti-RyR2 specific antibody; from tissue; host or cells: brain tissue (cortex, cerebellum) of COVID-19 patients and controls
T1 sequence (Q92736 whole entry): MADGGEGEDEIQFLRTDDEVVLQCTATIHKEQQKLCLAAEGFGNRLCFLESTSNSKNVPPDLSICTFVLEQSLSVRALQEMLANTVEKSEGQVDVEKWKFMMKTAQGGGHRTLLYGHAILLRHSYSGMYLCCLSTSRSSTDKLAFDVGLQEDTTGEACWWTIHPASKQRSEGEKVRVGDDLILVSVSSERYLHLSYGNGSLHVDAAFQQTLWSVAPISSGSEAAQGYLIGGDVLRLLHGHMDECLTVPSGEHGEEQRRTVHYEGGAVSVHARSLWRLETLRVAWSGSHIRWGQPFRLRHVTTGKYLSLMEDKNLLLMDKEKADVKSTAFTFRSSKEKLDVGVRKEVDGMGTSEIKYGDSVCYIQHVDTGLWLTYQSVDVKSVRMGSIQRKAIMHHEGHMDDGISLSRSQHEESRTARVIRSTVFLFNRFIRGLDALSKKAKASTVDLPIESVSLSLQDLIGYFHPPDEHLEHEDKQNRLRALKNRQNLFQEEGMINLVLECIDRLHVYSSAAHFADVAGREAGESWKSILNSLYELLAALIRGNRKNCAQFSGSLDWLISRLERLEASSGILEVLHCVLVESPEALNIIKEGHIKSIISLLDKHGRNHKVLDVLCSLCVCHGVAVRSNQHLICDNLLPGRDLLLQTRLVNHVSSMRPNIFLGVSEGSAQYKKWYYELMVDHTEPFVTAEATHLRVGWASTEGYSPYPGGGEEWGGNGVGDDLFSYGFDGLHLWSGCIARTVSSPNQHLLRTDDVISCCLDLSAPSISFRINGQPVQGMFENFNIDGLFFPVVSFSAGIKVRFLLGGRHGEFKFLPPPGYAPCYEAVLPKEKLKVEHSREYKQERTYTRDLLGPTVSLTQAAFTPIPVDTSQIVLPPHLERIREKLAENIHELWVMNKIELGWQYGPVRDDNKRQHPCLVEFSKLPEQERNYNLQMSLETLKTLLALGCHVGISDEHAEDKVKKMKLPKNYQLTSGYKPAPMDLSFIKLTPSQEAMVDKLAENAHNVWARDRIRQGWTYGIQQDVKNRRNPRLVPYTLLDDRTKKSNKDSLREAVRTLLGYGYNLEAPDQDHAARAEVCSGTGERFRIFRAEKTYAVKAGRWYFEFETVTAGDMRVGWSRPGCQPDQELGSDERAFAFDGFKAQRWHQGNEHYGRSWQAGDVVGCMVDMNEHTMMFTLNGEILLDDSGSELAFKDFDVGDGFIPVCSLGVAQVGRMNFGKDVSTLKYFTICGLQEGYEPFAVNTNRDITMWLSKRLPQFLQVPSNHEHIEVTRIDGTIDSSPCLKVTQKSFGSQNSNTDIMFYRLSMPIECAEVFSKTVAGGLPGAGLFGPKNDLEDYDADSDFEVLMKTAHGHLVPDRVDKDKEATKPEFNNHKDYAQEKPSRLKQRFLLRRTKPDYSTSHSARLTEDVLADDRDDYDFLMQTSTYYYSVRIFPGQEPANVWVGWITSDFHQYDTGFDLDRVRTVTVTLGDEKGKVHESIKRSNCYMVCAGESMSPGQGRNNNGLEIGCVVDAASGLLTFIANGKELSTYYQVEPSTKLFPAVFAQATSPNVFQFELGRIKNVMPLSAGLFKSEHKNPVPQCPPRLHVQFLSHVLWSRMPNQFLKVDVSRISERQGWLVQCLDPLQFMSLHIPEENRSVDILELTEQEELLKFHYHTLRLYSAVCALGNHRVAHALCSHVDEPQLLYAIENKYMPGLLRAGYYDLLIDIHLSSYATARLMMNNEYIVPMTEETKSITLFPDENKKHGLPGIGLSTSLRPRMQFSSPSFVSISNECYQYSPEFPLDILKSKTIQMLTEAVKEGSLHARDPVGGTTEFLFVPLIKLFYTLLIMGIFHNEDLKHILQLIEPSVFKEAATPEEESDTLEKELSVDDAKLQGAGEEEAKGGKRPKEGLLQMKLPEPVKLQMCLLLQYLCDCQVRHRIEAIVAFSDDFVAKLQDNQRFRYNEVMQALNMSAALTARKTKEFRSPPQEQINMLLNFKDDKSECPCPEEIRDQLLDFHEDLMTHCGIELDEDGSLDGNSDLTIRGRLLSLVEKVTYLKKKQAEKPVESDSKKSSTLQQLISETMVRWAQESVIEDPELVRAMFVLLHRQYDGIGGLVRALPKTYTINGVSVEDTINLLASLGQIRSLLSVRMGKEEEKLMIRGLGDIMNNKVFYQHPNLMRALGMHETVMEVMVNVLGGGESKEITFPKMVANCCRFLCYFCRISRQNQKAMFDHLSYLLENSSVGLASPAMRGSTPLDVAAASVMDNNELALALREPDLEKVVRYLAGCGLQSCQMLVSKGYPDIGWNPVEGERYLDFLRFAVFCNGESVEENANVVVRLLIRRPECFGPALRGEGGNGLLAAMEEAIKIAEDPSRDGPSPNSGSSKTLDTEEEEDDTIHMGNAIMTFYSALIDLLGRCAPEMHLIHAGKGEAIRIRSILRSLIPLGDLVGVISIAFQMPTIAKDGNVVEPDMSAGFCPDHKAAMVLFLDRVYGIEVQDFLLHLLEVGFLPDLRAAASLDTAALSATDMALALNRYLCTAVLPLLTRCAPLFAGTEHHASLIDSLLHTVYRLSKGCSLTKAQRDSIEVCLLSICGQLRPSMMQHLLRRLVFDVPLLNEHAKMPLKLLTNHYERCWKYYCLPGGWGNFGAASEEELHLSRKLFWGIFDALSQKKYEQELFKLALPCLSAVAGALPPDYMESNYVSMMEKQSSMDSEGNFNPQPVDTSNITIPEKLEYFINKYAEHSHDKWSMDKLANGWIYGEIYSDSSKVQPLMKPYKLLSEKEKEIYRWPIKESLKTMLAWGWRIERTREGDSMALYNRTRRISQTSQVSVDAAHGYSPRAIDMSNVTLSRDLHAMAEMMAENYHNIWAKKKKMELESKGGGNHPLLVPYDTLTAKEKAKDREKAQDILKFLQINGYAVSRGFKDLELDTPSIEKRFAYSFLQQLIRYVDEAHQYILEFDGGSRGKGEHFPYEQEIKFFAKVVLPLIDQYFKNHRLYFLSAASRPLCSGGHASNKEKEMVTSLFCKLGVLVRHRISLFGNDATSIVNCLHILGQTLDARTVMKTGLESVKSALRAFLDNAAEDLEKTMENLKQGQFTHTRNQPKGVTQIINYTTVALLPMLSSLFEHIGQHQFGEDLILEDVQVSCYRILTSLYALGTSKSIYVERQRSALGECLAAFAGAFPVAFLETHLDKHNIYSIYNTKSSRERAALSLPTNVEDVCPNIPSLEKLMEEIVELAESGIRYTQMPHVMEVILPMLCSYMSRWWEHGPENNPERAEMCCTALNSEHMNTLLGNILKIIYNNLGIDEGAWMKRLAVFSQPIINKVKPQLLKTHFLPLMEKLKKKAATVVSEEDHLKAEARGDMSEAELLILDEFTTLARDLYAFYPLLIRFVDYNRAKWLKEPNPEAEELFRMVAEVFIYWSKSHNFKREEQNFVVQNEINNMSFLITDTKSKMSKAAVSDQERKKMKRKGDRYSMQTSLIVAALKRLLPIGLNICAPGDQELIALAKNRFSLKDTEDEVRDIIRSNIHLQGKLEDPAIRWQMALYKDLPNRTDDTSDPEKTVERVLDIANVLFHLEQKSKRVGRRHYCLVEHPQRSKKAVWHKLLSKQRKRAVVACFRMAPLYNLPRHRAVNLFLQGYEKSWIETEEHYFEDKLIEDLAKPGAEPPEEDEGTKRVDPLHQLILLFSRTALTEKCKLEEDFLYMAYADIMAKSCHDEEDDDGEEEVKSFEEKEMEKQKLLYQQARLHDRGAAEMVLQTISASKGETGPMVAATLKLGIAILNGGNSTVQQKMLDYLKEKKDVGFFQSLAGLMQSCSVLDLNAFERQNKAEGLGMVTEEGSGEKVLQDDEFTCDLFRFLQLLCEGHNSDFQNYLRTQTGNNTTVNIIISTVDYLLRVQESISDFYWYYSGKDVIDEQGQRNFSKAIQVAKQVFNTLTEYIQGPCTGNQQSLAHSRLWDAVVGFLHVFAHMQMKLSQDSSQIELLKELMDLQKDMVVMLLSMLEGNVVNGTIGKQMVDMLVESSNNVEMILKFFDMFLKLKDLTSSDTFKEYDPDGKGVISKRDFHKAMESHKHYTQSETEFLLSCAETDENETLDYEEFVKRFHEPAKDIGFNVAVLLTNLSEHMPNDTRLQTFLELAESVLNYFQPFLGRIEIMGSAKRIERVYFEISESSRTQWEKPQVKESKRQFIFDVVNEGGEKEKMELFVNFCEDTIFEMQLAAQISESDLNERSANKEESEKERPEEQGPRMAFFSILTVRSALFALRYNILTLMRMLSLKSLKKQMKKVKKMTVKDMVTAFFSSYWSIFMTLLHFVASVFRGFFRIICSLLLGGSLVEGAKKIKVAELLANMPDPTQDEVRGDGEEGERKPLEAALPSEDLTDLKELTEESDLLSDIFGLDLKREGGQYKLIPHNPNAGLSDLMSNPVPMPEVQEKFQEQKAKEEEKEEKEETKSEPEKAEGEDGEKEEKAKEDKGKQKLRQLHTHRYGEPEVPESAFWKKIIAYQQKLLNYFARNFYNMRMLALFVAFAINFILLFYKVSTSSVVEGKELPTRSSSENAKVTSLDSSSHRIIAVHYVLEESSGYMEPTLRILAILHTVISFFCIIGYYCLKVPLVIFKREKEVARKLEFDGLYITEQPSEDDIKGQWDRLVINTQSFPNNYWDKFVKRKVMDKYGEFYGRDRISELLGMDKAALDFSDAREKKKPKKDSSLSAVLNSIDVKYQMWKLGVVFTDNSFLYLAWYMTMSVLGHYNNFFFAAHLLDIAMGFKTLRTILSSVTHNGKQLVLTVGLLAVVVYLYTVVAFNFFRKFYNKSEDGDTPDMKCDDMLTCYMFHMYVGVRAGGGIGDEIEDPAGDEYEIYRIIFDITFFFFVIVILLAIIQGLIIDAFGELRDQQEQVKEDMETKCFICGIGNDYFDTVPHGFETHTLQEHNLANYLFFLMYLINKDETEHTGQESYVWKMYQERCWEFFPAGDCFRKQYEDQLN
T1 sequence (P68106 whole entry partner): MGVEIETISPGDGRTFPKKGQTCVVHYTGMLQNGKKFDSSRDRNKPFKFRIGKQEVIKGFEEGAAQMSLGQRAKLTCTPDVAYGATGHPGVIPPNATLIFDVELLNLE
Nature of the assay: [3H]ryanodine binding to immunoprecipitated RyR2 (surrogate of channel open probability / leak). In kind it is biochemical. As for the experimental part:
RyR2 was immunoprecipitated from 1.5 mg of tissue lysate using an anti-RyR2 specific antibody (25 μg) in 1.0 ml of a modified RIPA buffer overnight at 4° C. The immune complexes were incubated with protein A-Sepharose beads (Sigma) at 4° C. for 1 h, and the beads were washed three times with RIPA buffer, followed by 2 washes with ryanodine binding buffer (10 mM Tris-HCl, pH 6.8, 1 M NaCl, 1% CHAPS, 5 mg/ml phosphatidylcholine, and protease inhibitors). Immunoprecipitates were incubated in 0.2 ml of binding buffer containing 20 nM [^3H] ryanodine and either of 150 nM and 20 μm free Ca^2+ for 1 h at 37° C. Samples were diluted with 1 ml of ice-cold washing buffer (25 mm Hepes, pH 7.1, 0.25 m KCl) and filtered through Whatman GF/B membrane filters pre-soaked with 1% polyethyleneimine in washing buffer. Filters were washed three times with 5 ml of washing buffer. The radioactivity remaining on the filters is determined by liquid scintillation counting to obtain bound [^3H] ryanodine. Nonspecific binding was determined in the presence of 1000-fold excess of non-labeled ryanodine.

For assay [2], the target named is T1, RyR2. Format: biochemical. To be noted: COVID-19 patient brain tissue lysates (Ctx, CB) treated ex vivo with 10 μM compound at 4° C.; FIGS. 3A and B; p<0.05 vs untreated COVID-19.

`COc1ccc2c(c1)CN(Cc1ccc(C(=O)O)cc1)CCS2` [Compound 1]: the “abnormal RyR2 activity ([3H]ryanodine binding) at resting Ca2+ concentration” value in assay [1] (RyR2 immunoprecipitated from COVID-19 brain lysates, 150 nM free Ca2+, as percent of maximum binding (20 μM Ca2+), FIG. 3C, p<0.05 vs untreated COVID-19) is on record as “decreased”. Besides, the RyR2 channel leak entry in assay [1] (ex vivo treatment of COVID-19 patient brain samples) is listed as “corrected; also recorded: fixed the channel leak”. In addition, in assay [2], the “calstabin2 binding to RyR2” value is recorded as “increased”.
